Measurements: patent publication US20200297749A1, “Methods and Pharmaceutical Composition for Modulation Polarization and Activation of Macrophages” (priority 2015, published 2020)
Residues, ends and D or L forms follow the SMILES beside them. *: point of attachment. Cbz = O=C(OCc1ccccc1)*

Legend:
NLRP3 [1] = assay: NLRP3 ubiquitinylation/degradation in HIV-1NL4-3-infected THP-1 monocytes; type: cell-based, human; conditions: THP-1, HIV-1NL4-3 infection
Procedure: (§1) Cells were washed twice with PBS and lysed in appropriated buffer (250 mM NaCl, 0.1% NP-40, 5 mM EDTA, 10 mM Na3VO4, 10 mM NaF, 5 mM DTT, 3 mM Na4P207, 1 mM EGTA, 10 mM Glycerol phosphate, 10 mM Tris-Hcl (pH=7.5) and the protease and phosphatase inhibitors (Roche)). 10-40 μg of protein extracts were run on 4-12% or 10% SDS-PAGE and transferred at 4° C. onto a nitrocellulose membrane (0.2 Micron). After incubation for 2 hours at room temperature with 5% nonfat milk or BSA (Bovine Serum Albumine) in Tris-buffered saline and 0.1% Tween 20 (TBS-Tween), membranes were incubated with primary antibody at 4° C. overnight. […] The primary antibodies against GFP (D5.1), PYK2 (5E2). PYK2Y402*, SRC (36D10), SRCY416*, AMPKα (F6), AMPKT172* (40H9) and LC3A/B were obtained from Cell Signaling. Primary antibodies against IL-1β, CASP1, ASC (TMS1), IRF5, PNX1, Actin and GAPDH were purchased from Abcam. The primary antibodies anti-CAp24 (42-50) and anti-gp120 (2G12) were from NIH (AIDS Research and Reference Reagent Program, Division of AIDS, NIAID). Antibody anti-NLRP3 was from Adipogen (Cryo-2), anti-P2Y2 was from Alomone, anti-ubiquitin (P4D1) was from Santa-Cruz, anti-TOM20 and anti-Flag were from Sigma. […]

NLRP3 [2] = assay: P2Y2-induced NLRP3 degradation in transfected 293T cells (western blot); type: cell-based; conditions: for down regulation of NLRP3 by P2Y2: 293T cells co-expressing NLRP3 and GFP-P2Y2; for NLRP3 degradation: pharmacological inhibition of SRC
Procedure: Cells were washed twice with PBS and lysed in appropriated buffer (250 mM NaCl, 0.1% NP-40, 5 mM EDTA, 10 mM Na3VO4, 10 mM NaF, 5 mM DTT, 3 mM Na4P207, 1 mM EGTA, 10 mM Glycerol phosphate, 10 mM Tris-Hcl (pH=7.5) and the protease and phosphatase inhibitors (Roche)). 10-40 μg of protein extracts were run on 4-12% or 10% SDS-PAGE and transferred at 4° C. onto a nitrocellulose membrane (0.2 Micron). After incubation for 2 hours at room temperature with 5% nonfat milk or BSA (Bovine Serum Albumine) in Tris-buffered saline and 0.1% Tween 20 (TBS-Tween), membranes were incubated with primary antibody at 4° C. overnight. […] The primary antibodies against GFP (D5.1), PYK2 (5E2). PYK2Y402*, SRC (36D10), SRCY416*, AMPKα (F6), AMPKT172* (40H9) and LC3A/B were obtained from Cell Signaling. Primary antibodies against IL-1β, CASP1, ASC (TMS1), IRF5, PNX1, Actin and GAPDH were purchased from Abcam. The primary antibodies anti-CAp24 (42-50) and anti-gp120 (2G12) were from NIH (AIDS Research and Reference Reagent Program, Division of AIDS, NIAID). Antibody anti-NLRP3 was from Adipogen (Cryo-2), anti-P2Y2 was from Alomone, anti-ubiquitin (P4D1) was from Santa-Cruz, anti-TOM20 and anti-Flag were from Sigma. For immunoprecipitations, cell pellets were lysed 6 hours after infection or 24 hours after transfection in CHAPS buffer (50 mM Tris-HCl (pH=7.5), 0.50 M NaCl and 0.1% CHAPS) containing protease and phosphatase inhibitors. Anti-NLRP3 (Origene), anti-P2Y2 (Abcam) antibodies were incubated overnight at 4° C. with the cell lysates. The complexes were precipitated by incubation with Protein G Sepharose™ 4 Fast Flow (GE Healthcare). For anti-Flag immunoprecipitations, anti-Flag® M2 affinity Gel (Sigma) were incubated for overnight at 4° C. with the cell lysates. […] Western blots shown are representative of at least of three independent experiments.

HIV-1NL4-3 = assay: HIV-1 permissiveness of THP-1 monocytes (intracellular p24); type: cell-based; conditions: human monocytes THP-1
Procedure: as §1

[3] = system: PMA-treated THP-1 macrophages stimulated with lipopolysaccharide and ATP (LPS+ATP); assay: IL-1β secretion by LPS+ATP-stimulated PMA-treated THP-1 macrophages (ELISA); type: cell-based, Human; conditions: for IL-1β secretion: after stimulation with LPS+ATP; for exacerbated IL-1β secretion of P2Y2-inhibited THP-1 macrophages: LPS+ATP stimulation, added 18 hours before; for IL-10 secretion: PMA-treated THP-1 macrophages, LPS+ATP, drug 100 μM during stimulation, FIG. 1a
Procedure: (§2) Human THP-1 cells were cultured in RPMI 1640 media, supplemented with 10% FBS. THP-1 cells were differentiated by treatment for 3 hours with 100 nM phorbol-12-myristate-13-acetate (PMA, Invivogen). After 2 days THP-1 cells were stimulated first 3 hours with ultrapure LPS from E. coli (10 ng/ml, LPS) and then stimulated for 6 hours with ATP (5 mM, Sigma). Supernatants were used for cytokine assays and cell lysates for western blot analysis. Kaempferol (100 μM, Sigma), OxATP (100 μM, Sigma), Suramine (100 μM, Sigma), or Bafilomycine A1 ([…], TOCRIS) were added during LPS+ATP stimulation, while, PP1 (20 μM, Sigma), PP2 (20 μM, Sigma). MnTBAP (10 μM, Sigma) and NAC (100 μM, Sigma) 18 hours before LPS+ATP stimulations. Commercially available ELISA kits for […] (Ebioscience), IL-10 (BD) or LDH (Roche) were used according to the manufacturers' instructions.

R5-tropic HIV-1BaL = assay: HIV-1BaL replication in human MDMs (p24 release); type: cell-based
[4] = system: LPS+ATP-stimulated PMA-treated THP-1 macrophages; assay: Quantification of ROS production (H2DCFDA, MitoSOX); type: cell-based, Human; conditions: detectable with H2DCFDA or MitoSOX
Procedure: Mitochondria-associated ROS levels were measured by staining cells with H2DCFDA at 5 μM for 1 hour or with MitoSOX at 0.25 μM for 10 minutes at 37° C. Cells were then washed twice with HBSS solution and suspended in cold HBSS solution containing 1% FBS for FACS analysis^25.

NLRP3 inflammasome = assay: IL-1β maturation under P2Y2 inhibition; type: cell-based; conditions: P2Y2i alone
Procedure: as §1

[5] = system: LPS+ATP-stimulated PMA-treated THP-1 macrophages; assay: Fragmentation of the mitochondrial network (TOM20, Mitotracker Green fluorescence microscopy); type: cell-based, Human; conditions: TOM20 or Mitotracker Green
Procedure: For immunofluorescence, cells were fixed in 2% paraformaldehyde-PBS for 5 minutes, permeabilized in 0.3% Triton (Sigma) in PBS, and incubated with PBS-FBS 20% for 1 hour, as previously described^39. Mitochondrial fragmentation and actin polymerization were analysed respectively using Mitotracker® Green FM (20 nM, Invitrogen) and Alexa Fluor 488 Phalloidin. For immunohistochemistry, 4-μm sections were cut from the paraffin blocks of the paraformaldehyde fixed tissues from mice, Macaca fascicularis or humans. After paraffin removal, slides were subjected to antigen retrieval by microwave boiling in 1 mmol/l EDTA pH 9.0. Slides were incubated with anti-P2Y2 (Alomone), anti-NLRP3 (Abcam), anti-CD163 (BD laboratories), anti-gp120 (2G12), anti-CD40 (BD laboratories) or anti-CASP1 p10 (Santa Cruz) overnight after permeabilization in 0.3% Triton for 5 minutes and saturation in PBS-FBS 20% for 1 hour. […] Cells were analysed by fluorescent confocal microscopy on Leica SPE (using a 63× objective). […] Mice alveolar macrophages were dissociated from lung (using Lung Dissociation kit from Miltenyi Biotech) and analysed using anti-CD11b (APC-Cy7) (BD laboratories), anti-CD11c (PE-Cy7) (BioLegend), anti-CD40 (eFluo710) (BioLegend), anti-F4/80 (FITC) (ebioscience) and anti-GR-1 (PE) (ebioscience).

[6] = system: PMA-differentiated THP-1 macrophages stimulated with LPS+ATP; assay: Viability / LDH release of LPS+ATP-stimulated THP-1 macrophages; type: cell-based, Human; conditions: in comparison with the control
Procedure: as §2

[7] = system: M2 human monocyte derived macrophages (MDMs); assay: M1 polarization assays in M2 monocyte derived macrophages; type: cell-based
Procedure: M2 MDMs that express at 100% the differentiation marker CD11b and the scavenger receptor M2 marker CD163 were then seeded (0.5×10^6/ml in macrophage medium+10% FBS), let to be attached on the plates for 2 hours at 37° C. before treatments with interferon γ (IFNγ) (1 μg/0.5×10^6 MDMs), kaempferol (100 μM) or DMSO for control cells. MDMs and supernatants were harvest for flow cytometry and confocal microscopy analysis at 24 hours post-kaempferol treatments and for cytokines IL-10 ELISA analyses at 96 hours post-kaempferol treatments. Expressions of CD163 and IRF5 were respectively determined by flow cytometry and western blot. Release of IL-1β and IL-10 was determined as indicated above by ELISA.

## O=C1C(=Cc2ccc([N+](=O)[O-])cc2)CS(=O)(=O)CC1=Cc1ccc([N+](=O)[O-])cc1 [G5]
NLRP3 [1]
  ubiquitinylation/degradation of NLRP3: increased
NLRP3 [2]
  down regulation of NLRP3 by P2Y2: partially inhibited
HIV-1NL4-3
  HIV-1 permissiveness (intracellular accumulation of p24): enhanced

## CC(C)C[C@@H](C=O)NC(=O)[C@H](CC(C)C)NC(=O)[C@H](CC(C)C)NC(=O)OCc1ccccc1 [MG132] (Cbz-Leu-Leu-Leu-aldehyde)
NLRP3 [2]
  down regulation of NLRP3 by P2Y2: fully suppressed

## O=c1ccn([C@@H]2O[C@H](COP(=O)(O)OP(=O)(O)OP(=O)(O)OP(=O)(O)Oc3ccccc3)[C@@H](O)[C@H]2O)c(=O)[nH]1 [MRS2768]
[3]
  IL-1β secretion: impaired

## O=c1nc2[nH]c(=O)[nH]c2c([O-])[nH]1.[Na+] [MSU, monosodium urate crystals]
R5-tropic HIV-1BaL
  p24 antigen release and replication of R5-tropic HIV-1BaL: reduced

## O=C(O)c1ccc(/C2=C3\C=CC(=N3)/C(c3ccc(C(=O)O)cc3)=c3/cc/c4[n]3[Mn]([Cl])[n]3c2ccc3/C(c2ccc(C(=O)O)cc2)=C2/C=CC(=N2)\C=4c2ccc(C(=O)O)cc2)cc1 [MnTBAP]
[3]
  exacerbated IL-1β secretion of P2Y2-inhibited THP-1 macrophages: blunted

## CC(=O)N[C@@H](CS)C(=O)O [N-Acetyl Cysteine]
[3]
  exacerbated IL-1β secretion of P2Y2-inhibited THP-1 macrophages: blunted

## Cc1ccc(-c2nn(C(C)(C)C)c3ncnc(N)c23)cc1 [PP1]
NLRP3 [2]
  NLRP3 degradation: impaired

## CC(C)(C)n1nc(-c2ccc(Cl)cc2)c2c(N)ncnc21 [PP2]
NLRP3 [2]
  NLRP3 degradation: impaired

## O=c1c(O)c(-c2ccc(O)cc2)oc2cc(O)cc(O)c12 [kaempferol]
[4]
  LPS+ATP-induced ROS production: increased
NLRP3 inflammasome
  IL-1β maturation: stimulation
[5]
  fragmentation of the mitochondrial network: caused fragmentation
[6]
  viability (cell death, pyroptosis): lost their viability
[7]; M2 human MDMs, kaempferol 100 μM, FIG. 1c
  IL-10 secretion: increased
[7]; MDMs, kaempferol 100 μM, 96 hours, FIG. 1e
  secretion of the M2 cytokine interleukin-10 (IL-10): reduced
[7]; MDMs, kaempferol 100 μM, FIG. 1c
  IL-1β secretion: induction
[7]; MDMs, kaempferol 100 μM, FIG. 1e
  M1 polarization: favoured the M1 polarization
[7]; flow cytometry, 24 hours post-kaempferol
  membrane expressions of the M2 markers such as CD163: diminished
[7]; western blot
  expression of IFN regulatory factor 5 (IRF5): increased
[3]
  IL-10 secretion: increased

## Nc1ncnc2c1ncn2[C@@H](C=O)O[C@@H](C=O)COP(=O)(O)OP(=O)(O)OP(=O)(O)O [oxidized ATP]
[3]
  IL-1β secretion: inhibited

## Cc1ccc(C(=O)Nc2ccc(S(=O)(=O)O)c3cc(S(=O)(=O)O)cc(S(=O)(=O)O)c23)cc1NC(=O)c1cccc(NC(=O)Nc2cccc(C(=O)Nc3cc(C(=O)Nc4ccc(S(=O)(=O)O)c5cc(S(=O)(=O)O)cc(S(=O)(=O)O)c45)ccc3C)c2)c1 [suramin]
[3]
  IL-10 secretion: increased
